# ChEMBL document CHEMBL5303711, “ECBD screening data for assay EOS300108” (2023)
# Activity calls are given as the source filed them. The rule behind the calls is not given here.
# Test: Cytotoxicity activity against human HepG2 cells assessed by CellTiter-Glo luminescent cell viability assay.
# Type: toxicity, cell-based
# Design: assay stage confirmatory assay, source tissue liver
# Settings: HepG2 cells, read-out: IC50 relative
row,Structure (SMILES),CC50
1,COc1ccc(C)cc1S(=O)(=O)N1CCCC(C(=O)N2CCN(c3ccccc3F)CC2)C1 (centres undefined),9.9 µM (inactive)
2,Cc1ccc(S(=O)(=O)c2cn(C)c3cc(N4CCN(C)CC4)c(F)cc3c2=O)cc1,15.1 µM (inactive)
3,O=C(Nc1ccc(Cl)cc1)N1CCCN(Cc2ccc(F)cc2)C1,6.7 µM (active)
4,O=c1oc(-c2ccccc2)cc(Cl)c1Cl,5.5 µM (active)
5,COc1ccccc1C(=O)Nc1ccccn1,8.4 µM (inactive)
6,CCn1c(=O)n(CC)c2cc(N3CCCC3)c(NC(=O)c3cccc(OC)c3)cc21,20.2 µM (inactive)
7,Oc1cc(O)c2sc(Nc3ccc(F)cc3)nc2n1,5.1 µM (active)
8,COc1cc(-c2noc(-c3ccc4c(c3)OCO4)n2)cc(OC)c1OC,0.1 µM (active)
9,Clc1nss/c1=N\c1ccc(Br)cc1,24.2 µM (inactive)
10,Cc1ccc(/N=c2\ssnc2Cl)nc1,16.4 µM (inactive)
11,CCCCc1c(C)[nH]n(-c2nc3ccccc3[nH]2)c1=O,8.9 µM (active)
12,COc1cc(NCCCC(C)N)c2ncccc2c1 (centres undefined),8.6 µM (active)
13,CNc1nc2c(=O)[nH]c(N)nc2n1[C@@H]1O[C@H](CO)[C@@H](O)[C@H]1O,11.4 µM (active)
14,COc1cc(-c2nnc(SC3=CS(=O)(=O)c4ccccc43)o2)cc(OC)c1OC,2.5 µM (active)
15,CCCN1C(=O)COc2cc(-c3noc(C(=O)NC4CCN(Cc5ccccc5)CC4)n3)ccc21,15.2 µM (inactive)
16,Cc1ccc(C)c(N2CCN(CCCNC(=O)C3CCN(c4ccc5nnc(C)n5n4)CC3)CC2)c1,8.7 µM (active)
17,COc1ccc(-c2nc(NCCN3CCN(C)CC3)c3ccccc3n2)cc1,7.9 µM (active)
18,CN1CCC2(CC1)CN(S(=O)(=O)c1ccc(Cl)s1)Cc1ccccc1O2,9.7 µM (active)
19,CCOc1ccc(C(=O)Nc2nc3ccc(S(=O)(=O)N(C)C)cc3s2)cc1,19.3 µM (inactive)
20,CCOc1ccccc1C(=O)N1CCN(c2ccccc2OCC)CC1,15.1 µM (inactive)
21,COc1ccccc1OCCOCCOCCOc1ccccc1OC,12.6 µM (inactive)
22,CCS(=O)(=O)c1ncc(Cl)c(C(=O)Nc2ccccc2Cl)n1,2.5 µM (active)
23,O=C(c1ccc(Cl)cc1)N(CCCc1ccccc1)CCS(=O)(=O)N1CCNCC1,10.2 µM (active)
24,c1ccc(CN2C[C@H]3CCNC[C@H]32)cc1,15.9 µM (inactive)
25,CC(C)N1CCN(Cc2nc(Cn3ccn4nc(-c5ccccc5)cc4c3=O)no2)CC1,8.2 µM (active)

row,Structure (SMILES),CC50
1,CC(C)S(=O)(=O)N1CC(Oc2ccc(-c3noc(-c4ccncc4)n3)cc2)C1,19.7 µM (inactive)
2,Cc1[nH]c2c(C)ccc(F)c2c1CCN,11.7 µM (active)
3,O=C(c1ccoc1)N1CCCN(Cc2ccc3c(c2)OCO3)c2ccccc21,20.4 µM (inactive)
4,OCCOCCNCc1ccc(-c2cc(Cl)cc(Cl)c2)o1,11.7 µM (active)
5,CC1(C)C2CC=C(CN(CCN3CCNCC3)C(=O)c3ccccc3Cl)C1C2 (centres undefined),14.3 µM (inactive)
6,CCCc1nnsc1C(=O)Nc1nc2ccccc2[nH]1,19 µM (inactive)
7,CCN(CC)S(=O)(=O)c1ccc(C(=O)Nc2cc(C)nn2-c2nc(C)cc(=O)[nH]2)cc1,6.5 µM (inactive)
8,O=C(Nc1cccnc1)c1ccc(Cn2nc(N3CCN(c4ccccc4)CC3)ccc2=O)o1,5.7 µM (active)
9,NCC1CN(CC2CC2)CC12CCCCC2 (centres undefined),13.1 µM (inactive)
10,CC(C)N1CC(CN)C2(CCCCC2)C1 (centres undefined),11.6 µM (active)
11,Cc1ccc(N2N=C(C(=O)N3CCCC3)S(=O)(=O)c3cccnc32)cc1,3.3 µM (active)
12,CCN(CC)CCN(C(C)=O)c1nc2cc(C)cc(C)c2s1,8.6 µM (active)
13,CCN(CC)c1cc(C)nc(Nc2ccc(NC(=O)C3CCCO3)cc2)n1 (centres undefined),11.3 µM (active)
14,CC(C)COCC(O)CN1CCCN(c2ccc(NC(=O)COc3ccc(Cl)cc3)cn2)CC1 (centres undefined),5.8 µM (active)
15,CCC(C)NC(=O)COc1ccc(-c2nc(C(C)C)no2)cc1 (centres undefined),4.2 µM (active)
16,NCC(c1ccc(Cl)cc1)C1CCCC1 (centres undefined),8 µM (active)
17,COc1cc2c(cc1C(=O)Nc1ccccc1F)OCCCO2,13.8 µM (inactive)
18,O=c1cc(CSc2ccccc2)nc2sc(-c3ccco3)nn12,3.2 µM (active)
19,Cc1cn2c(=O)c(S(=O)(=O)NCC3CCN(Cc4ccc(Cl)cc4)CC3)c(C)nc2s1,11.9 µM (active)
20,CC(N)Cc1ccc2oc3ccccc3c2c1 (centres undefined),8 µM (active)
21,CCN(CC)CCCNC(=O)C1CCCN(c2ncc(-c3ccc(F)cc3)cn2)C1 (centres undefined),10.9 µM (active)
22,Cc1[nH]c(C(=O)Nc2ccc(C#N)cc2)c(C)c1S(=O)(=O)N1CCCC1,17.9 µM (inactive)
23,COc1cccc(C(=O)/N=c2\sc(C)c(C)n2Cc2ccc(C(=O)NCCN(C)C)o2)c1,12.2 µM (active)
24,O=C(NCCN1CCCC1)C1CCN(c2ncccc2-c2nc(-c3ccccc3)no2)CC1,7.9 µM (active)
25,CC(C)Oc1ccc(C(=O)Nc2ccc3c(c2)N(S(C)(=O)=O)CCC3)cc1,2.7 µM (active)

row,Structure (SMILES),CC50
1,CC(C)c1ccccc1OCC(=O)Nc1cccnc1,4 µM (active)
2,COc1ccc(-c2cn3nc(N4CCC(C(=O)NCCN(C)C)CC4)sc3n2)cc1,3.6 µM (active)
3,CC(=O)CCS(=O)(=O)c1ccc(Cc2ccc(S(=O)(=O)CCC(C)=O)cc2)cc1,9.2 µM (active)
4,CCOc1ccc(S(=O)(=O)N2CC(C)CC(C)C2)cc1C (centres undefined),17 µM (inactive)
5,CCCN(CCC)CCNC(=O)Cn1cnc2onc(-c3ccc(Cl)cc3)c2c1=O,5.9 µM (active)
6,Cc1ccc(N2N=C(C(=O)NCCN3CCOCC3)S(=O)(=O)c3cc(F)ccc32)cc1,11.2 µM (active)
7,Cc1nc(-c2cccc(C(=O)N3CCN(Cc4noc(-c5ccc(F)cc5)n4)CC3)c2)no1,5.4 µM (active)
8,COc1ccc(OC)c([N+]2=C3SCCCN3C(O)(c3ccc(C)cc3)C2)c1 (centres undefined),11.6 µM (active)
9,O=C(CCC1CCCN(c2cc(NC3CC3)ncn2)C1)N1CCN(c2ccc(F)cc2)CC1 (centres undefined),9.1 µM (active)
10,Nc1nc(Nc2ccccc2F)nc2ccccc12,8.4 µM (active)
11,COc1ccc2c(c1)cc(C(=O)N[C@@H](C)C(=O)N1CCN(Cc3ccccc3)CC1)n2C,13.1 µM (inactive)
12,O=S1(=O)C[C@H](NCCc2c[nH]c3ccccc23)[C@@H](S(=O)(=O)c2cccs2)C1,11.6 µM (inactive)
13,c1ccc(-c2cnn3c(-c4ccco4)ccnc23)cc1,0.5 µM (active)
14,CCCCc1cc(=O)oc2c(C)c(OCC(=O)NCCN(C)C)ccc12,13 µM (inactive)
15,Cc1ccc(NC(=O)c2nc(S(C)(=O)=O)ncc2Cl)cc1,4.1 µM (active)
16,Cc1c(O)ccc2c(CN3CCN(c4ccc(F)cc4)CC3)cc(=O)oc12,24.8 µM (inactive)
17,CC(C)CN1CCN(Cc2nc(Cn3ccn4nc(-c5ccccc5)cc4c3=O)no2)CC1,13.6 µM (active)
18,CN(C)CCN(CCCN)Cc1ccco1,12.3 µM (active)
19,CC1=NN(C(=O)c2ccc(N(C)C)cc2)C(O)(C(F)(F)F)C1 (centres undefined),25 µM (inactive)
20,CCOc1cccc(OCC)c2c(C)nc(C)c1-2,26.6 µM (inactive)
21,CNS(=O)(=O)c1cc(-c2cc(C(=O)Nc3cccc(OC)c3)n[nH]2)ccc1OC,9.2 µM (active)
22,CCN1CCN(c2ncc(C(=O)Nc3ccc(Br)cc3)c(C)n2)CC1,13.8 µM (inactive)
23,O=C(CCn1sc2ccccc2c1=O)NCCc1c[nH]c2ccccc12,5 µM (active)
24,Cc1ccc(C)c(N2CCN(CCCNC(=O)CC3Oc4ccccc4NC3=O)CC2)c1 (centres undefined),15.7 µM (active)
25,CCn1cc(CN2C[C@@H]3C[C@H](NC(C)=O)CN3C(=O)[C@@H]2CC(C)C)c2ccccc21,13.6 µM (inactive)

row,Structure (SMILES),CC50
1,CC1CCN(S(=O)(=O)c2ccc(-c3nc(C#N)c(NCCCN(C)C)o3)cc2)CC1,5.8 µM (active)
2,O=C(Nc1nnc2ccccn12)c1ccc(F)c(Cl)c1,2.7 µM (active)
3,CC(=O)N1CCCSc2ccc(S(=O)(=O)NCCCc3ccccc3)cc21,12.2 µM (active)
4,CCN(CC)S(=O)(=O)c1cccc(C(=O)Nc2cccc(F)c2)c1,10.4 µM (active)
5,Cc1cccc(-c2noc(-c3ccc(N4CCN(C)CC4)nc3)n2)c1,5 µM (active)
6,CC(=O)C1=C(c2ccc(Br)cc2)N(C(C)=O)n2c(C)nnc2S1,10.9 µM (active)
7,COc1ccccc1-c1nnc(-c2ccccc2O)o1,5.3 µM (active)
8,O=C(C1CCCC1)N1CC(Oc2ccc(-c3noc(C4CCOCC4)n3)cc2)C1,3.2 µM (active)
9,CCOCC(=O)N1CCN(c2nc3c(s2)c(C)nn3-c2ccc(OC)cc2)CC1,11.5 µM (active)
10,CC(C(=O)NCCN(C)C)C1CCN(C(=O)c2cc3cc(Cl)ccc3[nH]2)CC1 (centres undefined),6.3 µM (active)
11,Cc1noc2ncnc(N3CCC(C(=O)N4CCc5ccccc54)CC3)c12,10.9 µM (active)
12,COc1cccc(S(=O)(=O)N2CCC3(CC2)CC(CCOc2ccncc2)CCO3)c1 (centres undefined),13.2 µM (active)
13,COc1ccc(NS(=O)(=O)c2ccc(-c3cnc(C)o3)cc2)cc1OC,3.6 µM (active)
14,CCCCOc1ccc(-c2cc3c4nnc(CCC(=O)N5CCN(CC)CC5)n4ccn3n2)cc1,4.2 µM (active)
15,O=C(CCCCCn1sc2ccccc2c1=O)Nc1ccc2c(c1)OCO2,3.5 µM (active)
16,COc1ccc(NC(=O)C2=C(c3ccccc3)S(=O)(=O)CCO2)c(OC)c1,9.7 µM (active)
17,CN(C)CCNC(=O)c1ccc2c(c1)n(Cc1cccc(F)c1)c(=O)c1ccnn12,12.7 µM (active)
18,COc1ccc(C(=O)N[C@@H]2CN(Cc3ccccc3)C[C@H]2CN(C)C)cc1F,12.1 µM (active)
19,CCCS(=O)(=O)Nc1ccc(Nc2nc(C)cc(N(CC)CC)n2)cc1,6.4 µM (active)
20,CCN1CCN(C(=O)C2CCN(c3nn4cc(-c5ccc(C)cc5)nc4s3)CC2)CC1,9.5 µM (active)
21,Cc1nc2n(c(=O)c1C)CN(CCCO)CN2c1ccc(Cl)cc1Cl,50 µM (inactive)
22,Clc1ccc(OCC2CCCNC2)c2ccccc12 (centres undefined),2 µM (active)
23,COc1ccc(-c2ccc(CNCCCN3CCOCC3)o2)cc1Cl,12.7 µM (inactive)
24,COc1cc(/N=c2\ssnc2Cl)cc(OC)c1OC,8.1 µM (active)
